Consider seven molecules from patent publication US9598359B2, “Sulfonates from natural oil metathesis” (priority 2010, dated 2017).

Data set [1] is classed as physicochemical. Set-up: key to Spont. (spontaneity or bloom): E (excellent); G (good); F (fair); P (poor). Particulars: for % Separation, 1 h / % Separation, 24 h: C = cream; for % Separation, 24 h, oil: O = oil separated, Tr = trace of oil.

Like-named read-outs stand apart in the source and are kept apart here.

Take `CCCCCCCCCCCC(=O)OC(CCCCCCCC(=O)OC)C(CC)S(=O)(=O)[O-].[Na+]` (centres unmarked) [C12-37, C12 UME C12 FA (60:40) SLA]: in data set [1] (34 ppm water), the “Spont. (spontaneity or bloom)” value was “F”; the “% Separation, 1 h” value is given as 3%; the “% Separation, 24 h” value is reported as 4 C, %; the “% Separation, 24 h, oil” value is under 1 O %. Moreover, in data set [1] (1000 ppm water), the “Spont. (spontaneity or bloom)” value is reported as “F”; the “% Separation, 1 h” value is 3%; the “% Separation, 24 h” value is 3 C, %; the “% Separation, 24 h, oil” value was 1 O %.

For the molecule `CCCCCCCCCCCC(=O)OC(CCCCCCCC(=O)[O-])C(CC)S(=O)(=O)[O-].[Na+].[Na+]` (centres unmarked) [C12-35, C12 UFA C12 FA (80:20) SLA], in data set [1] (34 ppm water), the “Spont. (spontaneity or bloom)” value is “F”; the “% Separation, 1 h” value is reported as 3.8%; the “% Separation, 24 h” value is recorded as 5 C, %; the “% Separation, 24 h, oil” value is given as “Tr”. Besides, in data set [1] (1000 ppm water), the “Spont. (spontaneity or bloom)” value is “F”; the “% Separation, 1 h” value is reported as 3%; the “% Separation, 24 h” value is on record as 4 C, %; the “% Separation, 24 h, oil” value is reported as “Tr”.

Turning to `CCCCCCCCCC(=O)OC(CCCCCCCC(=O)OC)CS(=O)(=O)[O-].[Na+]` (centres unmarked) [C10-35, C10 UME C10 FA (60:40) SLA], in data set [1] (34 ppm water), the “Spont. (spontaneity or bloom)” value is on record as “F”; the “% Separation, 1 h” value amounted to 3%; the “% Separation, 24 h” value is 3%. Also, in data set [1] (1000 ppm water), the “Spont. (spontaneity or bloom)” value is “F”; the “% Separation, 1 h” value is listed as 3.4%; the “% Separation, 24 h” value was 4%.

Turning to `CCCCCCCCCC(=O)OC(CCCCCCCC(=O)OC)C(CCCCCCCC(=O)OC)S(=O)(=O)[O-].[Na+]` (centres unmarked) [C18-63, DBE C10 FA (60:40) SLA], in data set [1] (34 ppm water), the “Spont. (spontaneity or bloom)” value is given as “F”; the “% Separation, 1 h” value is given as 3.1%; the “% Separation, 24 h” value is listed as 3 C, %; the “% Separation, 24 h, oil” value was found to be 1 O %. For the same molecule, in data set [1] (1000 ppm water), the “Spont. (spontaneity or bloom)” value is recorded as “F”; the “% Separation, 1 h” value is 3%; the “% Separation, 24 h” value is on record as 2.5 C, %; the “% Separation, 24 h, oil” value came out at 1 O %.

Turning to `C=CCCCCCCCC(=O)OC(CCCCCCCC(=O)[O-])CS(=O)(=O)[O-].[Na+].[Na+]` (centres unmarked) [C10-32, C10 UFA SLA], the “Spont. (spontaneity or bloom)” value in data set [1] (34 ppm water) and in data set [1] (1000 ppm water) was “F” throughout. In addition, the “% Separation, 1 h” value in data set [1] (34 ppm water) amounted to 3%; in data set [1] (1000 ppm water) it was 2.5%. The figures for the “% Separation, 24 h” value in data set [1] (34 ppm water) and in data set [1] (1000 ppm water) were 3.9% and 3%, respectively. Further, the “Emulsion stability, mL separation, 1 h” value (Adjuvant (anionic/nonionic) test sample) was found to be 0 mL; the “Emulsion stability, mL separation, 1 h” value (Anionic test sample) turned out to be 0 mL; the “Emulsion stability, mL separation, 1 h” value (Nonionic test sample) is 1 mL. Moreover, the “Emulsion stability, mL separation, 24 h” value is, setting by setting: (Adjuvant (anionic/nonionic) test sample, Tr = trace) “Tr”; (Anionic test sample) 0 mL; (Nonionic test sample) 1 mL. Besides, the “sol (solubility)” value (Anionic test sample, 342 ppm water, 30° C.) is “S”.

With `CCCCCCCCCC(=O)OC(CCCCCCCC(=O)OC)C(CCCCCCCC(=O)OC)S(=O)(=O)[O-].[Na+]` (centres unmarked) [C18-64, DBE C10 FA (75:25) SLA], in data set [1] (34 ppm water), the “Spont. (spontaneity or bloom)” value is given as “F−”; the “% Separation, 1 h” value was 3.2%; the “% Separation, 24 h” value was 2.5 C, %; the “% Separation, 24 h, oil” value is recorded as 1 O %. Further, in data set [1] (1000 ppm water), the “Spont. (spontaneity or bloom)” value is reported as “F−”; the “% Separation, 1 h” value is 3.7%; the “% Separation, 24 h” value is on record as 3 C, %; the “% Separation, 24 h, oil” value worked out at 1 O %.

For the molecule `CCCCCCCCCCCCCCCCCC(=O)OC(CCCCCCCC(=O)[O-])C(CC)S(=O)(=O)[O-].[Na+].[Na+]` (centres unmarked) [C12-36, C12 UFA C18 FA (80:20) SLA], in data set [1] (34 ppm water), the “Spont. (spontaneity or bloom)” value is “F”; the “% Separation, 1 h” value is on record as 3.8%; the “% Separation, 24 h” value is on record as 4.5 C, %; the “% Separation, 24 h, oil” value is “Tr”. In addition, in data set [1] (1000 ppm water), the “Spont. (spontaneity or bloom)” value is reported as “F”; the “% Separation, 1 h” value is listed as 3.6%; the “% Separation, 24 h” value is 4 C, %; the “% Separation, 24 h, oil” value is given as “Tr”.
